Measurements as given in the CheMixHub viscosity set.

Test: xn = mol fraction of the nth substance listed

C=Cc1ccccc1 + CCCCCCCCCCCC
viscosity [mPa·s], 101.33 kPa
Conditions	x1 = 0.0973	x1 = 0.2027	x1 = 0.2991	x1 = 0.4009	x1 = 0.5183	x1 = 0.5987	x1 = 0.699	x1 = 0.8005	x1 = 0.8996
298.15 K	1.243	1.143	1.062	0.99	0.909	0.866	0.822	0.774	0.739
303.15 K	1.151	1.051	0.985	0.92	0.847	0.81	0.769	0.722	0.688
308.15 K	1.059	0.98	0.915	0.854	0.791	0.76	0.724	0.691	0.656

BrC(Br)Br + CCCCCCCCCO
viscosity [mPa·s], 101.3 kPa
Conditions	x1 = 0.105	x1 = 0.299	x1 = 0.404	x1 = 0.504	x1 = 0.604	x1 = 0.704	x1 = 0.802	x1 = 0.903
298.15 K	7.847	5.743	5.079	4.228	3.571	2.984	2.492	2.12
303.15 K	6.517	4.87	4.38	3.693	3.151	2.669	2.266	1.963
308.15 K	5.421	4.144	3.777	3.24	2.802	2.399	2.065	1.818

BrC(Br)Br + CCCCCCCO
viscosity [mPa·s], 101.3 kPa
Conditions	x1 = 0.102	x1 = 0.204	x1 = 0.301	x1 = 0.405	x1 = 0.503	x1 = 0.597	x1 = 0.699	x1 = 0.801	x1 = 0.901
298.15 K	5.359	4.647	4.131	3.544	3.133	2.755	2.44	2.17	1.982
303.15 K	4.524	3.988	3.547	3.093	2.773	2.457	2.199	1.992	1.844
308.15 K	3.863	3.422	3.084	2.712	2.461	2.205	1.99	1.822	1.713

CCCCCCCCO + CCCCCCCO
viscosity [mPa·s]
Conditions	293.15 K	298.15 K	308.15 K	318.15 K
101.33 kPa, x2 = 0.1671	8.821	7.374	–	–
101.33 kPa, x2 = 0.3071	8.507	7.128	–	–
101.33 kPa, x2 = 0.4819	8.113	6.847	–	–
101.33 kPa, x2 = 0.6319	7.827	6.588	–	–
101.33 kPa, x2 = 0.6868	7.688	6.471	–	–
101.33 kPa, x2 = 0.8784	7.302	6.161	–	–
101.8 kPa, x2 = 0.1105	–	7.442	5.362	3.936
101.8 kPa, x2 = 0.3246	–	7.122	5.139	3.78
101.8 kPa, x2 = 0.5285	–	6.742	4.884	3.607
101.8 kPa, x2 = 0.723	–	6.415	4.676	3.463
101.8 kPa, x2 = 0.9101	–	6.128	4.474	3.324

BrC(Br)Br + CCCCCCO
viscosity [mPa·s], 101.3 kPa
Conditions	x1 = 0.097	x1 = 0.199	x1 = 0.298	x1 = 0.403	x1 = 0.497	x1 = 0.601	x1 = 0.701	x1 = 0.798	x1 = 0.9
298.15 K	4.186	3.77	3.34	2.965	2.667	2.4	2.192	2.031	1.922
303.15 K	3.573	3.237	2.907	2.611	2.37	2.156	1.988	1.866	1.784
308.15 K	3.092	2.811	2.537	2.301	2.114	1.943	1.815	1.719	1.663

C=Cc1ccccc1 + CCCCCCO
viscosity [mPa·s], 101.33 kPa
Conditions	x1 = 0.0998	x1 = 0.2024	x1 = 0.3078	x1 = 0.4006	x1 = 0.5007	x1 = 0.5988	x1 = 0.6993	x1 = 0.7986	x1 = 0.8985
298.15 K	3.131	2.522	1.956	1.613	1.293	1.134	0.972	0.891	0.808
303.15 K	2.773	2.177	1.703	1.446	1.154	1.051	0.89	0.84	0.747
308.15 K	2.296	1.88	1.497	1.298	1.114	1.008	0.86	0.81	0.693

CC(=O)c1ccc(Cl)cc1 + CCCCCCO
303.15 K, 101 kPa
Conditions	viscosity [mPa·s]
x1 = 0.0521	3.667
x1 = 0.1009	3.442
x1 = 0.1668	3.212
x1 = 0.2325	2.982
x1 = 0.3002	2.791
x1 = 0.4028	2.603
x1 = 0.5001	2.511
x1 = 0.5708	2.462
x1 = 0.641	2.437
x1 = 0.6998	2.428
x1 = 0.7655	2.448
x1 = 0.8376	2.502
x1 = 0.9007	2.589
x1 = 0.9513	2.717

CCCCCCCCO + CCCCCCO
viscosity [mPa·s], 101.8 kPa
Conditions	x2 = 0.1207	x2 = 0.3506	x2 = 0.5615	x2 = 0.7463	x2 = 0.9227
298.15 K	7.227	6.442	5.793	5.234	4.736
308.15 K	5.209	4.695	4.259	3.879	3.53
318.15 K	3.833	3.481	3.18	2.914	2.671

BrC(Br)Br + CCCCCO
viscosity [mPa·s], 101.3 kPa
Conditions	x1 = 0.097	x1 = 0.2	x1 = 0.296	x1 = 0.4	x1 = 0.499	x1 = 0.6	x1 = 0.701	x1 = 0.8	x1 = 0.9
298.15 K	3.255	3.006	2.729	2.477	2.275	2.114	1.997	1.91	1.873
303.15 K	2.831	2.621	2.399	2.2	2.039	1.928	1.822	1.762	1.742
308.15 K	2.452	2.296	2.113	1.954	1.829	1.741	1.67	1.631	1.628

C=Cc1ccccc1 + CCCCCO
viscosity [mPa·s], 101.33 kPa
Conditions	x1 = 0.1003	x1 = 0.1994	x1 = 0.3003	x1 = 0.3977	x1 = 0.4969	x1 = 0.5963	x1 = 0.7027	x1 = 0.8026	x1 = 0.9011
298.15 K	2.791	2.141	1.602	1.32	1.112	0.984	0.859	0.783	0.737
303.15 K	2.472	1.984	1.404	1.175	1.013	0.901	0.793	0.741	0.692
308.15 K	2.166	1.638	1.25	1.046	0.915	0.82	0.722	0.68	0.637

CCC(C)(C)OC + CCCCCO
298.15 K, 101.33 kPa
Conditions	viscosity [mPa·s]
x1 = 0.0219	3.286
x1 = 0.0388	3.133
x1 = 0.0752	2.891
x1 = 0.1143	2.511
x1 = 0.1631	2.192
x1 = 0.211	1.93
x1 = 0.2721	1.651
x1 = 0.3347	1.417
x1 = 0.3464	1.374
x1 = 0.385	1.26
x1 = 0.4353	1.125
x1 = 0.4908	1.003
x1 = 0.5534	0.886
x1 = 0.6141	0.789
x1 = 0.6759	0.71
x1 = 0.7266	0.652
x1 = 0.8027	0.579
x1 = 0.8732	0.521
x1 = 0.9484	0.469
x2 = 0.0064	0.441

CCCCCCCCO + CCCCCO
101.33 kPa
Conditions	viscosity [mPa·s]
293.15 K, x2 = 0.1991	7.947
293.15 K, x2 = 0.3363	7.158
293.15 K, x2 = 0.4792	6.397
293.15 K, x2 = 0.6294	5.561
293.15 K, x2 = 0.7214	5.182
293.15 K, x2 = 0.911	4.341
298.15 K, x2 = 0.0849	7.229
298.15 K, x2 = 0.2664	6.385
298.15 K, x2 = 0.3696	5.903
298.15 K, x2 = 0.6046	4.921
298.15 K, x2 = 0.708	4.524
298.15 K, x2 = 0.8575	3.97

BrC(Br)Br + CCCCO
viscosity [mPa·s], 101.3 kPa
Conditions	x1 = 0.099	x1 = 0.205	x1 = 0.3	x1 = 0.401	x1 = 0.501	x1 = 0.602	x1 = 0.699	x1 = 0.803	x1 = 0.899
298.15 K	2.482	2.339	2.196	2.063	1.955	1.887	1.847	1.817	1.827
303.15 K	2.183	2.07	1.942	1.841	1.768	1.718	1.695	1.684	1.709
308.15 K	1.915	1.828	1.738	1.662	1.607	1.573	1.559	1.564	1.588

CCCCCCCCO + CCCCO
viscosity [mPa·s], 101 kPa
Conditions	298.15 K	308.15 K	318.15 K
x2 = 0.05	7.06	5.06	3.734
x2 = 0.1	6.764	4.867	3.602
x2 = 0.15	6.475	4.678	3.472
x2 = 0.2	6.193	4.492	3.345
x2 = 0.25	5.917	4.309	3.22
x2 = 0.3	5.646	4.129	3.097
x2 = 0.35	5.382	3.953	2.975
x2 = 0.4	5.123	3.779	2.855
x2 = 0.45	4.87	3.608	2.736
x2 = 0.5	4.622	3.44	2.618
x2 = 0.55	4.38	3.275	2.502
x2 = 0.6	4.145	3.113	2.388
x2 = 0.65	3.915	2.955	2.275
x2 = 0.7	3.692	2.8	2.164
x2 = 0.75	3.476	2.649	2.055
x2 = 0.8	3.268	2.502	1.948
x2 = 0.85	3.067	2.36	1.845
x2 = 0.9	2.875	2.223	1.744
x2 = 0.95	2.693	2.092	1.648
